What was measured:
Type in all cases: binding
[1] = molecular target: T1, kinases (KINOMEscan panel) (Homo sapiens, UniProt Q8WTQ7); conditions: kinase GRK7; NEW KINOMEscan
T1 sequence (Q8WTQ7 1-553): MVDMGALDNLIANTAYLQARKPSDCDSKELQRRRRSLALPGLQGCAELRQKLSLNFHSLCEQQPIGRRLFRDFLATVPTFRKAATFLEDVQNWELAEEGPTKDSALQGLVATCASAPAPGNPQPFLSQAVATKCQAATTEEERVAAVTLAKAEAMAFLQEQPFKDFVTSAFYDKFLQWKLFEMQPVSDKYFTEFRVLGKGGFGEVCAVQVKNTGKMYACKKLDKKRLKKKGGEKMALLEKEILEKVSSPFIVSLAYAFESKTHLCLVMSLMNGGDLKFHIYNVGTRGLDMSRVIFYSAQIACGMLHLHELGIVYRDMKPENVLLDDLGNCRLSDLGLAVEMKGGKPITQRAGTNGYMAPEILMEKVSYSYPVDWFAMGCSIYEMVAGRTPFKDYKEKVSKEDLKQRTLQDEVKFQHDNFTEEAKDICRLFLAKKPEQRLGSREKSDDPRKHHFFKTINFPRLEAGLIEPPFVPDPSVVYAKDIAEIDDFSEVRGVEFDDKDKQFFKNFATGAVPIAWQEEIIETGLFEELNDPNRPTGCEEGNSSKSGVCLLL

[2] = molecular target: kinases (KINOMEscan panel) (Homo sapiens, UniProt Q86Y07); conditions: NEW KINOMEscan
[3] = molecular target: T2, kinases (KINOMEscan panel) (Homo sapiens, UniProt Q9UHD2); conditions: TBK1; NEW KINOMEscan
T2 sequence (Q9UHD2 1-729): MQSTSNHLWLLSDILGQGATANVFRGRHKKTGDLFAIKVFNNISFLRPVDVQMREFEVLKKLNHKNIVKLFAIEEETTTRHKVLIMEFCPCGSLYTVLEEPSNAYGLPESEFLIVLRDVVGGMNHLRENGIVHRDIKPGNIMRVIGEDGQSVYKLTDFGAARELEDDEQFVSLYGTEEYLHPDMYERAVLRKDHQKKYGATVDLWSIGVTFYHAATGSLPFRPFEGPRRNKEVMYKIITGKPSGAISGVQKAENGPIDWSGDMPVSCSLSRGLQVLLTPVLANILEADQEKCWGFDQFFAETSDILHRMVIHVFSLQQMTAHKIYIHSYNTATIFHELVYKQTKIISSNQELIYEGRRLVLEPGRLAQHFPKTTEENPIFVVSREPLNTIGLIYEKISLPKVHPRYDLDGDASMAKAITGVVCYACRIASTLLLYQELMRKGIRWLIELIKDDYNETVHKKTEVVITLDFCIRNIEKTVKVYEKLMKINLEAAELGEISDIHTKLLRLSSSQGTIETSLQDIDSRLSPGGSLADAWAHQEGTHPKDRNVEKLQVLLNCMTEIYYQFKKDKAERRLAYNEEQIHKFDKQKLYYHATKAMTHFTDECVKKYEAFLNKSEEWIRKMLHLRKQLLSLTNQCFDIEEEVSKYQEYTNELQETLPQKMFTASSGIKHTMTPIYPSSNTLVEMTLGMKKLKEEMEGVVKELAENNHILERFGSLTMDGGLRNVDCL

[4] = molecular target: T3, kinases (KINOMEscan panel) (Homo sapiens, UniProt Q8N568); conditions: NEW KINOMEscan
T3 sequence (Q8N568 1-766): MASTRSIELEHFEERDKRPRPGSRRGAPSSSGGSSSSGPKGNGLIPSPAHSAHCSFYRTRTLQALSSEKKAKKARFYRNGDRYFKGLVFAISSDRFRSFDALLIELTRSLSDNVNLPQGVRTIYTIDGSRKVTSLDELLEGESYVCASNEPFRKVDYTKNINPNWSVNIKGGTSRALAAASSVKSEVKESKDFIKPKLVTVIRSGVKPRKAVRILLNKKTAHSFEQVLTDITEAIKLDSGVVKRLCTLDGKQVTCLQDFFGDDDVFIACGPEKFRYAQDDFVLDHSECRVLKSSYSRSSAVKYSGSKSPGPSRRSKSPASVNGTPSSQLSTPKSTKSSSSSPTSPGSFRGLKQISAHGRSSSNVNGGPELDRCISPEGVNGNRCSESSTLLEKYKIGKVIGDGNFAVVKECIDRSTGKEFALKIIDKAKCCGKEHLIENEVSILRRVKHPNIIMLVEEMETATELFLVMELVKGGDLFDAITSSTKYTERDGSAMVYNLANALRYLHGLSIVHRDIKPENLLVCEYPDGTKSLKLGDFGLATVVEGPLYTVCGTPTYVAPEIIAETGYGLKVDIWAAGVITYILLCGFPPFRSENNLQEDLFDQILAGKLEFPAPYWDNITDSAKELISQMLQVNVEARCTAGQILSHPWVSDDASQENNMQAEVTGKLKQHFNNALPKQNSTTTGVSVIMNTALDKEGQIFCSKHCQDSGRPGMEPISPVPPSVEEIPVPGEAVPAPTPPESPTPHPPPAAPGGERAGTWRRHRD

[5] = molecular target: kinases (KINOMEscan panel) (Homo sapiens, UniProt Q16584); conditions: kinase MAP3K11; NEW KINOMEscan
[6] = molecular target: kinases (KINOMEscan panel) (Homo sapiens, UniProt Q13464); conditions: ROCK1; NEW KINOMEscan
[7] = molecular target: kinases (KINOMEscan panel) (Homo sapiens, UniProt P27448); conditions: MARK3; NEW KINOMEscan
[8] = molecular target: kinases (KINOMEscan panel) (Homo sapiens, UniProt P32298); conditions: kinase GRK4; NEW KINOMEscan
[9] = molecular target: kinases (KINOMEscan panel) (Homo sapiens, UniProt P00533, DEL752-759); conditions: EGFR(S752-I759del); NEW KINOMEscan
[10] = molecular target: kinases (KINOMEscan panel) (Homo sapiens, UniProt P12931); conditions: SRC; NEW KINOMEscan
[11] = molecular target: kinases (KINOMEscan panel) (Homo sapiens, UniProt P00533, DEL746-750); conditions: NEW KINOMEscan
[12] = molecular target: kinases (KINOMEscan panel) (Homo sapiens, UniProt P49840); conditions: GSK3A; NEW KINOMEscan
[13] = molecular target: kinases (KINOMEscan panel) (Homo sapiens, UniProt P35590); conditions: TIE1; NEW KINOMEscan
Chain of kinases (KINOMEscan panel) (Homo sapiens, UniProt P35590) (P35590 22-1138): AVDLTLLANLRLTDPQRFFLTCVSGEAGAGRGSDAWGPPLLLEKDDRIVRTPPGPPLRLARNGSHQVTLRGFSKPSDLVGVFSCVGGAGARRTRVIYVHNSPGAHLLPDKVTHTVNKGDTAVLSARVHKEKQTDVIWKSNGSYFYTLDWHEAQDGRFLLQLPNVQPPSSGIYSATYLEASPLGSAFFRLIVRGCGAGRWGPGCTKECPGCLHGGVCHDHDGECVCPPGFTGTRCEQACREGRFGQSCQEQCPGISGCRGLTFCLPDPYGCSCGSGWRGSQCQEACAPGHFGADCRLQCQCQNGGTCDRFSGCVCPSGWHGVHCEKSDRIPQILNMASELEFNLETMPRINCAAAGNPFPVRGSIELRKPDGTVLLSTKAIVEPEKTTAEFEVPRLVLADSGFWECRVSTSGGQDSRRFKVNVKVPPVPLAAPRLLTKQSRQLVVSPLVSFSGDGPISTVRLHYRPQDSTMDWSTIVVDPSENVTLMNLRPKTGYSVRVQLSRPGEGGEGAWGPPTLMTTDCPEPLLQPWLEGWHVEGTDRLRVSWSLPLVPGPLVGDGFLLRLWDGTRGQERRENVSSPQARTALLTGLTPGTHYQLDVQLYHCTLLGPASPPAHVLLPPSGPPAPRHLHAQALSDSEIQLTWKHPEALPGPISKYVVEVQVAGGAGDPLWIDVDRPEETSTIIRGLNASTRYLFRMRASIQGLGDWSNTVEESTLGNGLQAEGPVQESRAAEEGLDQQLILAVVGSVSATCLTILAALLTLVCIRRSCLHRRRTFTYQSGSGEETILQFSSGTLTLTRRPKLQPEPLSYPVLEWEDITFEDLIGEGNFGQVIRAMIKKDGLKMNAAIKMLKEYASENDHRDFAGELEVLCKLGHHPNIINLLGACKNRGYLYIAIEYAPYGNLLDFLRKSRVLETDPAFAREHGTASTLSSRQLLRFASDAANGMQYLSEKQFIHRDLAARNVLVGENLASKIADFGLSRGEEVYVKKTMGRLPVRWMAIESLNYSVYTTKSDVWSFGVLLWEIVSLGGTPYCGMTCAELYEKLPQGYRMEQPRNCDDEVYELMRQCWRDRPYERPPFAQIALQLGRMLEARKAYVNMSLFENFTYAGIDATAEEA

Chain of kinases (KINOMEscan panel) (Homo sapiens, UniProt P27448) (P27448 whole entry): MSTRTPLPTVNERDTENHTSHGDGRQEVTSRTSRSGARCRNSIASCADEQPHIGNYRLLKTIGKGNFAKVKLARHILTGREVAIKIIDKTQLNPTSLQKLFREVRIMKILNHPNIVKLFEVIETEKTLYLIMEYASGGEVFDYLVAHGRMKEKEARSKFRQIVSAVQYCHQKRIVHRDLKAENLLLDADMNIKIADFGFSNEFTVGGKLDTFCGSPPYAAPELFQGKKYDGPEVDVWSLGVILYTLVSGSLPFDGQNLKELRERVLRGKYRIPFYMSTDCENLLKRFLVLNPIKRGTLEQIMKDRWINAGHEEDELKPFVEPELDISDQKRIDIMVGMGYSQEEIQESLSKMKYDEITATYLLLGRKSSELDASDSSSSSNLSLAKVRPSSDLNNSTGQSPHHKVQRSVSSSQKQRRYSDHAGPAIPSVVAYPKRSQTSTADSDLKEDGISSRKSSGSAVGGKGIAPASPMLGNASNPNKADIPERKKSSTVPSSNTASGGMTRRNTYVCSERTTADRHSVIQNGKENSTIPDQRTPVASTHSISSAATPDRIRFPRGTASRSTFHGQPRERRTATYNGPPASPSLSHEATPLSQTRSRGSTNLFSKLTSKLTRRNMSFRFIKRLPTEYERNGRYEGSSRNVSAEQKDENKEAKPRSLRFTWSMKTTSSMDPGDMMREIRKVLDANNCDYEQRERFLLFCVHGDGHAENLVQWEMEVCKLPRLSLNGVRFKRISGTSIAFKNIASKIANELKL
Chain of kinases (KINOMEscan panel) (Homo sapiens, UniProt Q13464) (Q13464 whole entry): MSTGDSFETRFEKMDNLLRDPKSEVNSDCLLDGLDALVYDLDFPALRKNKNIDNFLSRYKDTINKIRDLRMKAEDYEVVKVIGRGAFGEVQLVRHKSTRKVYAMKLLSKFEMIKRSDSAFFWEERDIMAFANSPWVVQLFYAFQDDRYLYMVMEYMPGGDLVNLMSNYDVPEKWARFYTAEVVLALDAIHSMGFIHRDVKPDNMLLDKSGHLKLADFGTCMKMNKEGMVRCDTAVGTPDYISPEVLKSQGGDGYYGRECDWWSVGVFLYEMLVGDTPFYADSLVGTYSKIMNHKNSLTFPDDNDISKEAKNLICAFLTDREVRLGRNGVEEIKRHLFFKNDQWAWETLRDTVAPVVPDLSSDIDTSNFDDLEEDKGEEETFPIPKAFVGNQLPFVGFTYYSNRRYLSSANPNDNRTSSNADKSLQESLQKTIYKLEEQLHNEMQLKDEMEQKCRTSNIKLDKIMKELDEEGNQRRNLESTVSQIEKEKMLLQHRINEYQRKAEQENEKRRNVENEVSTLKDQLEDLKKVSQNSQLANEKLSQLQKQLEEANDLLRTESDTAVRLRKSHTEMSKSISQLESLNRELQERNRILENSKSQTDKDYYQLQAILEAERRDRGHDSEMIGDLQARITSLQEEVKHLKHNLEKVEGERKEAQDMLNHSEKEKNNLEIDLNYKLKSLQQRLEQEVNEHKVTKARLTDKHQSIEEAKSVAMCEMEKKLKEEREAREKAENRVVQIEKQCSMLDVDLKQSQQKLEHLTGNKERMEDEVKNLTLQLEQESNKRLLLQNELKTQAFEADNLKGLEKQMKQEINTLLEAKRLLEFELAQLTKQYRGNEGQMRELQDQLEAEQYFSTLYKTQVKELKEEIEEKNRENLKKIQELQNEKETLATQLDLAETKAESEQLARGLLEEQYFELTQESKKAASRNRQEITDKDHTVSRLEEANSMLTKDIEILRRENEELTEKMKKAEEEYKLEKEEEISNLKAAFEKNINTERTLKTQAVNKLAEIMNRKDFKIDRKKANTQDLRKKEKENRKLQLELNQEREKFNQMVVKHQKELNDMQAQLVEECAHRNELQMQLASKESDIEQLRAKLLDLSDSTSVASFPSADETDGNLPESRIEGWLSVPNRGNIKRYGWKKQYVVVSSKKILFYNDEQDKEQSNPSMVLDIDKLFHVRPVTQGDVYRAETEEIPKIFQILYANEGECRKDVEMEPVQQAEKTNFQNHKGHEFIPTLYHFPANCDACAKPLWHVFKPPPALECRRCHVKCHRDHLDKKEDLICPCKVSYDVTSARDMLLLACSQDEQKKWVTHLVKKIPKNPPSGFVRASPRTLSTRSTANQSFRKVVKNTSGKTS
Chain of kinases (KINOMEscan panel) (Homo sapiens, UniProt Q86Y07) (Q86Y07 whole entry): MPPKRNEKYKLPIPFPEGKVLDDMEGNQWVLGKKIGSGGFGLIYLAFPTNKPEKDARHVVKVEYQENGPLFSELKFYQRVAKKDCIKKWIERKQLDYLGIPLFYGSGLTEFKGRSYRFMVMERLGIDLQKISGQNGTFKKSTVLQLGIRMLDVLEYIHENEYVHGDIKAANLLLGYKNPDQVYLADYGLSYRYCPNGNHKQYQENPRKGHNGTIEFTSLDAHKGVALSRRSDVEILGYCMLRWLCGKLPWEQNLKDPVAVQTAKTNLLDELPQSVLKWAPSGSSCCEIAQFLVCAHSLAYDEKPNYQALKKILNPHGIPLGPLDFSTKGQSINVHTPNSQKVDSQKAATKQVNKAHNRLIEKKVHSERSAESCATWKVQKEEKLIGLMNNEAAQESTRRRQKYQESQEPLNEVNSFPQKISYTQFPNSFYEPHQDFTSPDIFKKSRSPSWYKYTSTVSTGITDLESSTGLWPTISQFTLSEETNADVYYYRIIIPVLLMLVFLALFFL
Chain of kinases (KINOMEscan panel) (Homo sapiens, UniProt Q16584) (Q16584 whole entry): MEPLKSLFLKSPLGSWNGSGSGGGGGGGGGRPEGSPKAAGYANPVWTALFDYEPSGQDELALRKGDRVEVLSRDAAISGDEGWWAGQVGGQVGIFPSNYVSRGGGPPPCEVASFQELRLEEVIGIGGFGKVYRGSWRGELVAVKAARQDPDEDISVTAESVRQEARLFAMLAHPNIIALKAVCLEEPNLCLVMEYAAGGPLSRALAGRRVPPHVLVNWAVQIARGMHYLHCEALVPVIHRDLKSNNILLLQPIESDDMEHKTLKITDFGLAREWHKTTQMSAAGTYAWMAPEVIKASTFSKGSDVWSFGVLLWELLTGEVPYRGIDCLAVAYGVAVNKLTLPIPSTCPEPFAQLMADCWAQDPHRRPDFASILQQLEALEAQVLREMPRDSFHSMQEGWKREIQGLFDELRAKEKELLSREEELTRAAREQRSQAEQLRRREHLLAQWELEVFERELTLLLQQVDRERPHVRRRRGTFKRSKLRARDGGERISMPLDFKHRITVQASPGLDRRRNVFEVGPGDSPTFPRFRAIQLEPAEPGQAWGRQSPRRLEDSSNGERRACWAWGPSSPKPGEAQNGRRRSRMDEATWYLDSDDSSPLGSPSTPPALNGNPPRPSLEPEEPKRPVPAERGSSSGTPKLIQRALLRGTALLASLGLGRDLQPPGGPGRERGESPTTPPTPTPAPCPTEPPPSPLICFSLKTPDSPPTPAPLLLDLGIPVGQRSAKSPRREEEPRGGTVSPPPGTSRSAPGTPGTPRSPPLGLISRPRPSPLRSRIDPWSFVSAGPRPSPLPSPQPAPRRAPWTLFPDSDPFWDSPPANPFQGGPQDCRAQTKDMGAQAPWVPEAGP
Chain of kinases (KINOMEscan panel) (Homo sapiens, UniProt P49840) (P49840 whole entry): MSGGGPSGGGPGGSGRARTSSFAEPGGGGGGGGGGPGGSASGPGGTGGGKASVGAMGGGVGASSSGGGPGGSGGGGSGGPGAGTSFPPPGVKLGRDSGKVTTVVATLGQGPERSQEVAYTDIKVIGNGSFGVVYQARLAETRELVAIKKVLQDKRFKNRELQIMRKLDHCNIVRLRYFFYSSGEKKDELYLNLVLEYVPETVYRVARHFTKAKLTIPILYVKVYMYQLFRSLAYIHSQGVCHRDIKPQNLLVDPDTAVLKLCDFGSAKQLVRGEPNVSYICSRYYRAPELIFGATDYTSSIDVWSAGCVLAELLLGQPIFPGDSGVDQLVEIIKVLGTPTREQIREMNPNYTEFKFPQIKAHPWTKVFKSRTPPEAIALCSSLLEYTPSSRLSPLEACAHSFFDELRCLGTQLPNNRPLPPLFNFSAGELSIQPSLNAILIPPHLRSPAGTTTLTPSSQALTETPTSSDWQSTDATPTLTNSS

| Compound | KINOMEscan GRK7 [1] | KINOMEscan VRK2 [2] | KINOMEscan TBK1 [3] | KINOMEscan DCLK2 [4] | KINOMEscan MAP3K11 [5] | KINOMEscan ROCK1 [6] | KINOMEscan MARK3 [7] | KINOMEscan GRK4 [8] | KINOMEscan EGFR(S752-I759del) [9] | KINOMEscan SRC [10] | KINOMEscan EGFR(E746-A750del) [11] | KINOMEscan GSK3A [12] | KINOMEscan TIE1 [13] |
| --- | --- | --- | --- | --- | --- | --- | --- | --- | --- | --- | --- | --- | --- |
| Cc1cccc(-c2nc(Nc3ccc4nn(C)cc4c3)c3ccccc3n2)n1 [NK167] | 0 | 11 | 44 | 11 | 0 | 0 | 0 | 0 | 0 | 13 | 15 | 0 | 0 |
| Cc1cccc(-c2nc(N(C)c3ccc4ncsc4c3)c3ccccc3n2)n1 [NK-161] | 5 | 25 | 25 | 25 | 0 | 12 | 0 | 0 | 0 | 18 | 21 | 0 | 0 |

From article PMC9851200, “Multiparameter phenotypic screening for endogenous TFEB and TFE3 translocation identifies novel chemical series modulating lysosome function” (Autophagy, 2022)
